In patent US8703961B2, “Thiazole derivatives for the treatment of diseases such as cancer” (Merck Patent GmbH, priority 2009, dated 2014) one finds IC50 and remaining activity data, which are given here for five compounds.

Assay in all cases: filter binding kinase assay
Common to all, as to assay type: biochemical

One assay deals with T1, HIPK2 (Homo sapiens, UniProt Q9H2X6).
T1 construct: purchased
Particulars: for IC50: derived from % inhibition at 1 μM. The procedure, abridged: (§1)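 Radioactivity retained on P81 phosphocellulose filters is the read-out. Before the reaction begins, test substance sits with kinase and substrate for 5 minutes at room temperature. The ATP solution added is 5, 20 or 50 […] according to the kinase, and acid quench ends the reaction.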

In the next assay the target is T2, MYLK (Homo sapiens, UniProt Q15746).
T2 construct: purchased
Particulars: derived from % inhibition at 1 μM. The procedure, abridged:
as §1

Another assay deals with T3, EEF2K (Homo sapiens, UniProt O00418).
T3 construct: purchased
Particulars: derived from % inhibition at 1 μM. Summed up: as §1

Another assay addresses T4, MAPKAPK2 (Homo sapiens, UniProt P49137).
T4 construct: purchased
Particulars: derived from % inhibition at 1 μM. Summed up: as §1

The target of a further assay is T5, YES1 (Homo sapiens, UniProt P07947).
T5 construct: purchased
T5 sequence (P07947 whole entry, species assumed): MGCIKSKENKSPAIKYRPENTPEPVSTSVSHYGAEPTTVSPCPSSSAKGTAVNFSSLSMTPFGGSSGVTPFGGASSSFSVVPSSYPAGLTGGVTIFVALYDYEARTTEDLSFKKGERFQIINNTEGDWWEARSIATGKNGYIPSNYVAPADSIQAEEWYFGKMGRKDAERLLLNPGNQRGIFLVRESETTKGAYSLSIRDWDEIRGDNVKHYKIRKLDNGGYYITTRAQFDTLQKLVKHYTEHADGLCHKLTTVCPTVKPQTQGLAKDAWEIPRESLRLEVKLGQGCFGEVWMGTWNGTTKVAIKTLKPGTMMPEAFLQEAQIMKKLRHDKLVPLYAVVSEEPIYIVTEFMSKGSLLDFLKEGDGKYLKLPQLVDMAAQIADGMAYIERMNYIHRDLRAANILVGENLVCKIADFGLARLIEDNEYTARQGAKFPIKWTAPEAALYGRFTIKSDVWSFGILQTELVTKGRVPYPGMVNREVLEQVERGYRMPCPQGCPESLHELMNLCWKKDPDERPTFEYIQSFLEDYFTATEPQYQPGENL
Particulars: derived from % inhibition at 1 μM. The procedure, abridged: as §1

The target of a further assay is T6, CDK2 (Homo sapiens, UniProt P24941).
T6 construct: purchased
Particulars: for IC50: derived from % inhibition at 1 μM; for remaining activity at 1 µM: read-out: residual kinase activity CDK2. Summed up:
as §1

In a further assay the target is T7, MINK1 (Homo sapiens, UniProt Q8N4C8).
T7 construct: purchased
T7 sequence (Q8N4C8 whole entry, species assumed): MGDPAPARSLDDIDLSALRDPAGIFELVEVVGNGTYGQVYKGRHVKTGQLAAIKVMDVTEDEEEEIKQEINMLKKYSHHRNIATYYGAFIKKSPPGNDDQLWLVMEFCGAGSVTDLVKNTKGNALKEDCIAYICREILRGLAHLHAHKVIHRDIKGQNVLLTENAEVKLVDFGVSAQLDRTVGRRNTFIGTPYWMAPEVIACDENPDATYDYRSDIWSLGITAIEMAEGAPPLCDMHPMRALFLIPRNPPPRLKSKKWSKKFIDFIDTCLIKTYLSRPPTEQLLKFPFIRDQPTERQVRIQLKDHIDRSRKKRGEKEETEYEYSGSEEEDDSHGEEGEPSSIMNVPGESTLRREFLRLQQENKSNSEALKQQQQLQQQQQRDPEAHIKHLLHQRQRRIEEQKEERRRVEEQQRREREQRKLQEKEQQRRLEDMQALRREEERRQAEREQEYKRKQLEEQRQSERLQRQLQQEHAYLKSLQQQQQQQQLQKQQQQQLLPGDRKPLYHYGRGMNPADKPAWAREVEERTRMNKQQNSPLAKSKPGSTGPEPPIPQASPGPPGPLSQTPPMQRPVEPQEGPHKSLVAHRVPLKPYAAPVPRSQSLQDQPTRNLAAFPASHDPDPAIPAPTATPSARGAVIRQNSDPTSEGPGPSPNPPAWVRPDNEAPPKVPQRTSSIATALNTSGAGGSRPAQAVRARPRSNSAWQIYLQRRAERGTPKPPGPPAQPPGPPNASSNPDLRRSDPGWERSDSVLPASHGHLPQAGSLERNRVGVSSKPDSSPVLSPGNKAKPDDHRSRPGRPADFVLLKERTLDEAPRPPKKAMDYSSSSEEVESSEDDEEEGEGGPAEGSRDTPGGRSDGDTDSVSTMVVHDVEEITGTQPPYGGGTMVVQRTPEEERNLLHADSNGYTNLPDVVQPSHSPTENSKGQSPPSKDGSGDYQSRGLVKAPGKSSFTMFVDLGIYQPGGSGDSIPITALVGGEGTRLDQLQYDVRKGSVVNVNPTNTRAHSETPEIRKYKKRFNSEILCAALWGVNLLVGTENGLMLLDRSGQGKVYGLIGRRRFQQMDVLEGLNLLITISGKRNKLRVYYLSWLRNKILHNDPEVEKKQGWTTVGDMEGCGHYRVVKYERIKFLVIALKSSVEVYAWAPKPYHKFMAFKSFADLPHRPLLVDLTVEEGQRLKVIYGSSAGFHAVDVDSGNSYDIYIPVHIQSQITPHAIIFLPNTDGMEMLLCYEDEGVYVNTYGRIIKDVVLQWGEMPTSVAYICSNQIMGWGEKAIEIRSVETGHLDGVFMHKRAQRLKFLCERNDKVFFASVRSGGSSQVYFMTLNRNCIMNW
Particulars: derived from % inhibition at 1 μM. The procedure, abridged: as §1

For a further assay, the target named is T8, MAPK10 (Homo sapiens, UniProt P53779).
T8 construct: purchased
T8 sequence (P53779 whole entry, species assumed): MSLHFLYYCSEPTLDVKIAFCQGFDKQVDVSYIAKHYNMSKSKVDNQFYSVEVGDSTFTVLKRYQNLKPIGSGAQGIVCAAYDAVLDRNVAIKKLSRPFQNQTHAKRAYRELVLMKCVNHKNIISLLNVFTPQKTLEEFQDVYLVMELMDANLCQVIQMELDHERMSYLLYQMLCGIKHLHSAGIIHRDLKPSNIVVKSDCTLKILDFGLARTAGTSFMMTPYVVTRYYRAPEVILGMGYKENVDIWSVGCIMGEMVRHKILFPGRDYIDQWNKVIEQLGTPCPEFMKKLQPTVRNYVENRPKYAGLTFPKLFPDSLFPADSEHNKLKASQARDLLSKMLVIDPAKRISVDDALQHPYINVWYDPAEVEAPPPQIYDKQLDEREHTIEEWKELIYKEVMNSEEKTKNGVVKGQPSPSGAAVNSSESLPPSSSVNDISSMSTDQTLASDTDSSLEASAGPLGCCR
Particulars: derived from % inhibition at 1 μM. The procedure, abridged:
as §1

In another assay the target is T9, BRSK2 (Homo sapiens, UniProt Q8IWQ3).
T9 construct: purchased
T9 sequence (Q8IWQ3 1-736): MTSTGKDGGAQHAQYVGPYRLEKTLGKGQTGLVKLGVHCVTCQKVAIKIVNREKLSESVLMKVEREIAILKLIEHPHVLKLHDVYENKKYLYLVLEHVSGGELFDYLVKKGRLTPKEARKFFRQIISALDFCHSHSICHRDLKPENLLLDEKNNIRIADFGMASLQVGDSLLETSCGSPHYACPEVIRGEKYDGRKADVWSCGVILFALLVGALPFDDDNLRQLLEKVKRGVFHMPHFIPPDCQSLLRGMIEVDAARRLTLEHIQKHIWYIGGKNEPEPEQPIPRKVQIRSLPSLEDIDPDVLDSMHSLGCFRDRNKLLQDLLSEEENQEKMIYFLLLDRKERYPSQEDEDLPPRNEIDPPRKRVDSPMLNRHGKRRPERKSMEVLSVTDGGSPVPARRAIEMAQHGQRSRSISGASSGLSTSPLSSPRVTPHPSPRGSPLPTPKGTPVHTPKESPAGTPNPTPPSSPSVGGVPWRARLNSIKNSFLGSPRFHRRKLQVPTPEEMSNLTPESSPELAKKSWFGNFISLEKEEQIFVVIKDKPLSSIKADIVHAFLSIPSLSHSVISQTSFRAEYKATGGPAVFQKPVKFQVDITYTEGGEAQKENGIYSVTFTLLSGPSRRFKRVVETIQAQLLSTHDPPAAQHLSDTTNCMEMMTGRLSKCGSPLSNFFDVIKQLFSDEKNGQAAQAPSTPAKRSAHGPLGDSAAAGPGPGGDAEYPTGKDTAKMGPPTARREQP
Particulars: derived from % inhibition at 1 μM. The procedure, abridged: as §1

Another assay concerns the target T10, MKNK2 (Homo sapiens, UniProt Q9HBH9).
T10 construct: purchased
Particulars: derived from % inhibition at 1 μM. The procedure, abridged:
as §1

A further assay deals with T11, MAP2K1 (MKK1) (Homo sapiens, UniProt Q02750).
T11 construct: purchased
T11 sequence (Q02750 whole entry, species assumed): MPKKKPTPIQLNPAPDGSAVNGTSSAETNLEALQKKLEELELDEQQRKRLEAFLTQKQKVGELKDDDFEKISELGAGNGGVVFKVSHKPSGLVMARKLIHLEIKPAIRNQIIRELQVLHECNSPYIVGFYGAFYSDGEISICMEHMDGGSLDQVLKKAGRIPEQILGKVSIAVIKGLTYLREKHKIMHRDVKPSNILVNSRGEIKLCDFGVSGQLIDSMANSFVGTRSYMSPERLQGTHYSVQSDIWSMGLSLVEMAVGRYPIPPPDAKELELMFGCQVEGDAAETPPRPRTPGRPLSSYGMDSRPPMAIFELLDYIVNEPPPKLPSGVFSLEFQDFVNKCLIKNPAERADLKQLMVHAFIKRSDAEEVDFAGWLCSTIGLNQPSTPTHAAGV
Particulars: for IC50: derived from % inhibition at 1 μM. The procedure, abridged:
as §1

The next assay concerns the target T12, RPS6KA5 (Homo sapiens, UniProt O75582).
T12 construct: purchased
Particulars: derived from % inhibition at 1 μM. The procedure, abridged: as §1

For the next assay, the target named is T13, DYRK1A (Homo sapiens, UniProt Q13627).
T13 construct: purchased
Particulars: derived from % inhibition at 1 μM. The procedure, abridged: as §1

In a further assay the target is T14, PRKD2 (Homo sapiens, UniProt Q9BZL6).
T14 construct: purchased
T14 sequence (Q9BZL6 1-878): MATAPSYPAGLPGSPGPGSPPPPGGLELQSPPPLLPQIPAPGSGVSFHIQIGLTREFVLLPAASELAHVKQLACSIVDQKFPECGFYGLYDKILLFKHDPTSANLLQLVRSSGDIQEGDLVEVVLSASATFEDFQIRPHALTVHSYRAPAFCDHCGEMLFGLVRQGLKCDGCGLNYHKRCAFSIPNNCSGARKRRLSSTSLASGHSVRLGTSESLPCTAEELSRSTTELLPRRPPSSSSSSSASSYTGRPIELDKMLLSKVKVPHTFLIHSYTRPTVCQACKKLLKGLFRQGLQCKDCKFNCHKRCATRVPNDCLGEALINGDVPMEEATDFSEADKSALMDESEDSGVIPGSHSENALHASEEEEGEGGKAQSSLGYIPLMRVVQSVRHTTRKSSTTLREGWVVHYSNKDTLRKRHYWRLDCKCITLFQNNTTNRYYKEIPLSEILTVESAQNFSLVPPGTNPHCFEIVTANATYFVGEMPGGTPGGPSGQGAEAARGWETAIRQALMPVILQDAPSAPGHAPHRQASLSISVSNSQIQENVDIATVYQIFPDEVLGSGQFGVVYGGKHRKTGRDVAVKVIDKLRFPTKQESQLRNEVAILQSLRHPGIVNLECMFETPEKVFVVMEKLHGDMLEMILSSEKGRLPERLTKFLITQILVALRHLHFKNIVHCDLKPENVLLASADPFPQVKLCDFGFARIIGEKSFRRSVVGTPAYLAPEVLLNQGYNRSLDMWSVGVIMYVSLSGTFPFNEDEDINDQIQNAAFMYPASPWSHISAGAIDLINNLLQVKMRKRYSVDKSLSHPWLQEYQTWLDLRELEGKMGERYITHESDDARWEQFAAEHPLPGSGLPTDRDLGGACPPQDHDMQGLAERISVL
Particulars: derived from % inhibition at 1 μM. The procedure, abridged: as §1

A further assay concerns the target T15, CHEK2 (Homo sapiens, UniProt O96017).
T15 construct: purchased
Particulars: derived from % inhibition at 1 μM. The procedure, abridged: as §1

Molecules are shown by their SMILES. Some results are limits rather than exact numbers.

T1 sequence (Q9H2X6 whole entry, species assumed): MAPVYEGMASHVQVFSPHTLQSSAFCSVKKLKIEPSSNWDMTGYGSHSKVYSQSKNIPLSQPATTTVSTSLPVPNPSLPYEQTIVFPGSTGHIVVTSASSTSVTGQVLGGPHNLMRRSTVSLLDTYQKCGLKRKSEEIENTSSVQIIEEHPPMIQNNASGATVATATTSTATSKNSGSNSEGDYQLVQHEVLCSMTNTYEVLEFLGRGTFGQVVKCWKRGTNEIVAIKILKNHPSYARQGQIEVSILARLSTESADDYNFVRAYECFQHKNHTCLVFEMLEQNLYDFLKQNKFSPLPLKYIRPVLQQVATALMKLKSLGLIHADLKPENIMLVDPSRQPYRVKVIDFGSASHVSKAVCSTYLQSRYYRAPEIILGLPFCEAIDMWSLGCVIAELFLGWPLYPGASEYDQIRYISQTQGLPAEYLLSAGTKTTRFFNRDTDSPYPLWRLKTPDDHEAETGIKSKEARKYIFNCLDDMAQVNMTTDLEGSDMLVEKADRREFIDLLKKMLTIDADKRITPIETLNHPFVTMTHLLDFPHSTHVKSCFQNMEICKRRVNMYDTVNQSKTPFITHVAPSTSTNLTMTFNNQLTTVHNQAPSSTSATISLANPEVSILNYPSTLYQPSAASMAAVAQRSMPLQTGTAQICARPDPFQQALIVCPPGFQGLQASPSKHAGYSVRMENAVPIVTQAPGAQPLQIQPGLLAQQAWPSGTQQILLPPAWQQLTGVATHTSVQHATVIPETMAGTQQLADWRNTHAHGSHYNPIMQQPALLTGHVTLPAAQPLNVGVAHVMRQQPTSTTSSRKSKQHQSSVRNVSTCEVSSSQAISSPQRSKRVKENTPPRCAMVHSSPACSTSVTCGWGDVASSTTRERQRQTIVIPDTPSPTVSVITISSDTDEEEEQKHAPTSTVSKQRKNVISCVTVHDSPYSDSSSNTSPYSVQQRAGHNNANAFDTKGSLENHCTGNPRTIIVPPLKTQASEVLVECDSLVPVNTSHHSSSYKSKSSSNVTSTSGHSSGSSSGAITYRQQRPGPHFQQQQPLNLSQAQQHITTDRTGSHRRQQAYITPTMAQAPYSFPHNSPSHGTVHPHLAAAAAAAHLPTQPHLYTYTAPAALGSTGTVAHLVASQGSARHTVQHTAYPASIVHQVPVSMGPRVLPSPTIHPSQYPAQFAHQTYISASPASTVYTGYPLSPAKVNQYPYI
T10 sequence (Q9HBH9 whole entry, species assumed): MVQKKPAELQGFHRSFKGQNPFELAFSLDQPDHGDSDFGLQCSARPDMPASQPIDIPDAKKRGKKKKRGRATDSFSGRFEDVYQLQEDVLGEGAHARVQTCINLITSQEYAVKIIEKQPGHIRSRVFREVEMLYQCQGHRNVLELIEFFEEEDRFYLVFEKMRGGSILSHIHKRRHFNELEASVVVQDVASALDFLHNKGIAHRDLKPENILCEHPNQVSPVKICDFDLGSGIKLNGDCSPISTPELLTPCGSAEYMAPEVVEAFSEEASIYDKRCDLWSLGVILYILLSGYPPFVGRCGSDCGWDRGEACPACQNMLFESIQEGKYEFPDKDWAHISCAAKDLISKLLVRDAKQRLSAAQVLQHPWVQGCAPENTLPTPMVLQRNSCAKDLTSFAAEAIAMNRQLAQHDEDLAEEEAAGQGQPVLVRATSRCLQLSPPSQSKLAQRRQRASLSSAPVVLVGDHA
T15 sequence (O96017 whole entry, species assumed): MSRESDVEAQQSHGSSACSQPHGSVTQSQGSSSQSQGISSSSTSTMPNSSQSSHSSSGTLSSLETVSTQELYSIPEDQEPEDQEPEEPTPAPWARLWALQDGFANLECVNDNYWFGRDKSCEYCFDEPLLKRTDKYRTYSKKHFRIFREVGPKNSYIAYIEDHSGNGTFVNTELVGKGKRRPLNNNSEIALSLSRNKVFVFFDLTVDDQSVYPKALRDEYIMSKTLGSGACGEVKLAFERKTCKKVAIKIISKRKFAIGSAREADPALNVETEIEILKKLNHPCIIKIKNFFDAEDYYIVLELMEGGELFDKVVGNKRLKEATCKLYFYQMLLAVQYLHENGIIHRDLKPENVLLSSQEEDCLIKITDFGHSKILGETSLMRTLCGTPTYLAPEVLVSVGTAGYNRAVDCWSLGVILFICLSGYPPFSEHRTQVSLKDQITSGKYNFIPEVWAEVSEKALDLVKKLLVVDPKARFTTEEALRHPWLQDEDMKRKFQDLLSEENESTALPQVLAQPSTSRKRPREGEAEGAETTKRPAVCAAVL

With `Nc1ncsc1C#Cc1cccc(O)c1` [Compound A27, 3-(4-aminothiazol-5-ylethynyl)phenol], the IC50 at HIPK2 is over 1000 nM; on MYLK it was 1000 to 10000 nM; at EEF2K it was 1 to 10 µM; on MAPKAPK2, 10 to 100 µM; on YES1 it was over 1000 nM; on CDK2 it was 10 to 100 µM. Also, the IC50 on MINK1 is 1 to 10 µM; at MAPK10, 1000 to 10000 nM; on BRSK2 it was 10000 to 100000 nM; at MKNK2, over 1000 nM; on MAP2K1 (MKK1) it was over 1000 nM; at RPS6KA5, 10 to 100 µM. The half-inhibitory concentration (IC50) fell in the range of 10 to 100 µM at DYRK1A, 1000 to 10000 nM on PRKD2 and 10000 to 100000 nM on CHEK2.
In the case of `CC(C)(C)OC(=O)Nc1ncsc1C#CCN1C(=O)c2ccccc2C1=O` [Compound A26, tert-butyl{5-[3-(1,3-dioxo-1,3-dihydroisoindol-2-yl)prop-1-ynyl]-thiazol-4-yl}carbamate], the 50% inhibitory concentration (IC50) is 1000 to 10000 nM on HIPK2; over 1000 nM at MYLK; 10 to 100 µM on EEF2K; 10 to 100 µM on MAPKAPK2; over 1000 nM on YES1; 0.01 to 1 µM at CDK2. For the same compound, the IC50 at MINK1 is 10 to 100 µM; at MAPK10 it was over 1000 nM; on BRSK2, over 1000 nM; on MKNK2, 10000 to 100000 nM; on MAP2K1 (MKK1), 1000 to 10000 nM; on RPS6KA5 it was over 1 µM. Also, the 50% inhibitory concentration (IC50) on DYRK1A was 10 to 100 µM; at PRKD2 it was over 1000 nM; on CHEK2, over 1000 nM. Besides, at CDK2, the remaining activity at 1 µM amounted to 28%.
Regarding `CC(C)(C)OC(=O)Nc1nc(-c2ccncc2)sc1C#CCN1CCOCC1` [Compound A25, tert-butyl[5-(3-morpholin-4-ylprop-1-ynyl)-2-pyridin-4-ylthiazol-4-yl]-carbamate], the IC50 at HIPK2 is over 1000 nM; at MYLK, over 1000 nM; at EEF2K it was over 1 µM; on MAPKAPK2 it was over 1 µM; at YES1, over 1000 nM; at CDK2, 10 to 100 µM. Further, the IC50 on MINK1 is 10 to 100 µM; on MAPK10 it was over 1000 nM; at BRSK2, over 1000 nM; at MKNK2, over 1000 nM; at MAP2K1 (MKK1), 1000 to 10000 nM; at RPS6KA5 it was 10 to 100 µM. The half-maximal inhibitory concentration (IC50) was over 1 µM on DYRK1A, over 1000 nM on PRKD2 and over 1000 nM at CHEK2.
Regarding `c1ccc(Cc2c[nH]c3ncsc23)cc1` [Compound A7, 6-benzyl-4H-pyrrolo[2,3-d]thiazole], the IC50 was over 1000 nM at HIPK2; over 1000 nM on MYLK; 10 to 100 µM on EEF2K; over 1 µM on MAPKAPK2; over 1000 nM at YES1; 0.01 to 1 µM at CDK2. Also, the 50% inhibitory concentration (IC50) at MINK1 was 1 to 10 µM; on MAPK10 it was over 1000 nM; at BRSK2 it was over 1000 nM; on MKNK2 it was over 1000 nM; on MAP2K1 (MKK1) it was 1000 to 10000 nM; on RPS6KA5 it was 1 to 10 µM. Besides, the concentration for half-maximal inhibition (IC50) at DYRK1A was over 1 µM; on PRKD2 it was 1000 to 10000 nM; on CHEK2, over 1000 nM. The remaining activity at 1 µM at CDK2 came out at 41%.
Regarding `Nc1ncsc1C#Cc1cnc2[nH]ccc2c1` [Compound A22, 5-(1H-pyrrolo[2,3-b]pyridin-5-ylethynyl)thiazol-4-ylamine], the IC50 on HIPK2 is 10 to 1000 nM; on MYLK, over 1000 nM; on EEF2K it was 10 to 100 µM; on MAPKAPK2, over 1 µM; at YES1 it was 1000 to 10000 nM; at CDK2, 1 to 10 µM. The IC50 at MINK1 was 1 to 10 µM; at MAPK10 it was over 1000 nM; on BRSK2 it was over 1000 nM; at MKNK2 it was over 1000 nM; on MAP2K1 (MKK1), 10 to 1000 nM; at RPS6KA5, 10 to 100 µM. For the same compound, the IC50 at DYRK1A is over 1 µM; on PRKD2, over 1000 nM; on CHEK2, over 1000 nM. In addition, the results for the remaining activity at 1 µM at HIPK2 (read-out: residual kinase activity HIPK2), at CDK2 and on MAP2K1 (MKK1) (read-out: residual kinase activity MKK1) were 44%, 52% and 43%, respectively.
